{"source": "patent US20260176393A1", "about": "“PRESERVATIVE COMPOSITION FOR BIOLOGICAL SAMPLES” (KANAZAWA UNIVERSITY, priority 2022, published 2026)", "key": {"[1]": {"assay": "Osmotic pressure, vapor pressure-type osmometer", "format": "physicochemical", "conditions": "10 wt % in Water", "procedure": "A vapor pressure-type osmometer (VAPRO 5600; Wescor, Inc., Logan, UT, USA) was used, and an osmotic pressure was measured in a 10 mL standard chamber (room temperature: 25° C., apparatus sensor temperature: 33° C., sample volume: 10 μL)."}, "[2]": {"system": "Human kidney cells (BOSC)", "assay": "Cryopreservation test, survival rate of BOSC cells", "format": "cell-based", "conditions": "10 wt % in Water; after cryopreservation", "procedure": "In the case of adherent cells, the cells to be frozen were treated with trypsin and recovered by centrifugation. In the case of floating cells, the cells to be frozen were recovered by centrifugation. The cells of each type were diluted with Dulbecco's modified Eagle medium (DMEM), and the cell concentration was measured. In the present specification, the DMEM solution is also simply referred to as a medium.\nSubsequently, each dilution was dispensed at 1 mL/tube to 1.5 mL tubes, and the cells were suspended in a cryopreservative solution containing 100 μL of a zwitterion polymer solution and frozen at a cooling temperature of −85° C. and a cooling rate of −1° C./min by a cell freezing container Mr. Frosty®. In the present Examples, the commercially available cryopreservative solution used was CultureSure® (manufactured by FUJIFILM Wako Pure Chemical Corp.) unless otherwise specified. The cryopreservation time was set to 48 hours. Then, the cells were thawed at a tube temperature of 37° C. and used in live cell counting.\nThe cells were thawed by the addition of 1 mL of a medium to the cryopreservation vial at 37° C. and centrifuged to remove a supernatant. The cells thus obtained by centrifugation were resuspended in a medium, followed by live cell counting."}, "mouse fibroblasts (mNF)": {"system": "mouse fibroblasts (mNF)", "assay": "Cryopreservation test, survival rate of mNF cells", "format": "cell-based", "conditions": "10 wt % in Water; after cryopreservation", "procedure": "In the case of adherent cells, the cells to be frozen were treated with trypsin and recovered by centrifugation. In the case of floating cells, the cells to be frozen were recovered by centrifugation. The cells of each type were diluted with Dulbecco's modified Eagle medium (DMEM), and the cell concentration was measured. In the present specification, the DMEM solution is also simply referred to as a medium. […] Frosty®. In the present Examples, the commercially available cryopreservative solution used was CultureSure® (manufactured by FUJIFILM Wako Pure Chemical Corp.) unless otherwise specified. The cryopreservation time was set to 48 hours. Then, the cells were thawed at a tube temperature of 37° C. and used in live cell counting. The cells were thawed by the addition of 1 mL of a medium to the cryopreservation vial at 37° C. and centrifuged to remove a supernatant. The cells thus obtained by centrifugation were resuspended in a medium, followed by live cell counting."}}, "data": [{"smiles": "C=Cn1cc[n+](CCCC(=O)[O-])c1", "note": "[VimC3C]", "values": [{"measurement": "Osmotic pressure", "setting": "[1]", "result": 860, "unit": "mOsm/kg"}, {"measurement": "Survival rate (BOSC)", "setting": "[2]", "result": 0.15}, {"measurement": "Survival rate (mNF)", "setting": "mouse fibroblasts (mNF)", "result": 0.42}]}]}
